Patent US7781591B2, “Substituted 3-cyanopyridines as protein kinase inhibitors” (Wyeth LLC, priority 2006, dated 2010)

Biological target: T1, human PKCθ full length enzyme (Homo sapiens, UniProt Q04759)
T1 construct: human PKCθ full length enzyme (Panvera Cat# P2996); purchased Panvera P2996
Test: PKCθ IMAP assay (fluorescence polarization)
Type: biochemical
Conditions: human PKCθ full length enzyme, IMAP; average value; read-out: IC50 PKCθ IMAP

T1 sequence (Q04759 whole entry): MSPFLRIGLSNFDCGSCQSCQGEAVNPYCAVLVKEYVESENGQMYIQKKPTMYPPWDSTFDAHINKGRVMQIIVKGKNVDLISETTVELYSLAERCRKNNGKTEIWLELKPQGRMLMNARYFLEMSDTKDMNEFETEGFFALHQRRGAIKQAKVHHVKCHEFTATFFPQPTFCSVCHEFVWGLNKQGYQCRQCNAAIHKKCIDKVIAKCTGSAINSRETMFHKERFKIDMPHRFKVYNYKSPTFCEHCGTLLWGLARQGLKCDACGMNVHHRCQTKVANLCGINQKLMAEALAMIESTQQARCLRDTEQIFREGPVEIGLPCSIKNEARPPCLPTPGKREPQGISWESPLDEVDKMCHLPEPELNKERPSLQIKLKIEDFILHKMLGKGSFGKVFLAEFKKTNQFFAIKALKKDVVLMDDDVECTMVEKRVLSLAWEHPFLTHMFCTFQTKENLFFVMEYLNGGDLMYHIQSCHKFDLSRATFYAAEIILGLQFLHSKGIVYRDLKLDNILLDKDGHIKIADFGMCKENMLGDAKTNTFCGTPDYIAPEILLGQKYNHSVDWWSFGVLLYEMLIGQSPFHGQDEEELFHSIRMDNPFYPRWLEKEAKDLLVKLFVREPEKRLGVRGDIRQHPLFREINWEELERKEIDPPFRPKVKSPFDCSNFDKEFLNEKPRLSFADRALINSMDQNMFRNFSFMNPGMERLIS

Compound | IC50 [µM]
N#Cc1cncc(-c2ccc3c(c2)OCCO3)c1Nc1ccc2[nH]ccc2c1 [Compound 264, 5-(2,3-dihydro-1,4-benzodioxin-6-yl)-4-(1H-indol-5-ylamino)nicotinonitrile] | 0.06
N#Cc1cncc(-c2cncnc2)c1Nc1ccc2[nH]ccc2c1 [Compound 265, 4-(1H-indol-5-ylamino)-5-pyrimidin-5-ylnicotinonitrile] | 3.86
COc1ncc(-c2cncc(C#N)c2Nc2ccc3[nH]ccc3c2)cn1 [Compound 266, 4-(1H-indol-5-ylamino)-5-(2-methoxypyrimidin-5-yl)nicotinonitrile] | 1.45
N#Cc1cncc(-c2cccs2)c1Nc1ccc2[nH]ccc2c1 [Compound 267, 4-(1H-indol-5-ylamino)-5-(2-thienyl)nicotinonitrile] | 0.1
N#Cc1cncc(-c2cc3ccccc3o2)c1Nc1ccc2[nH]ccc2c1 [Compound 268, 5-(1-benzofuran-2-yl)-4-(1H-indol-5-ylamino)nicotinonitrile] | 0.01
Cc1noc(C)c1-c1cncc(C#N)c1Nc1ccc2[nH]ccc2c1 [Compound 269, 5-(3,5-dimethylisoxazol-4-yl)-4-(1H-indol-5-ylamino)nicotinonitrile] | 10.9
N#Cc1cncc(-c2cccc(CO)c2)c1Nc1cccc2[nH]ccc12 [Compound 270, 5-[3-(hydroxymethyl)phenyl]-4-(1H-indol-4-ylamino)nicotinonitrile] | 0.02
CN(C)Cc1cccc(-c2cncc(C#N)c2Nc2cccc3[nH]ccc23)c1 [Compound 271, 5-{3-[(dimethylamino)methyl]phenyl}-4-(1H-indol-4-ylamino)nicotinonitrile] | 0.1
C#CCNCc1ccc2sc(-c3cncc(C#N)c3Nc3cccc4[nH]ccc34)cc2c1 [Compound 272, 4-(1H-indol-4-ylamino)-5-{5-[(prop-2-yn-1-ylamino)methyl]-1-benzothien-2-yl}nicotinonitrile] | 0.004
N#Cc1cncc(-c2cc3cc(CN4CCCC4)ccc3s2)c1Nc1cccc2[nH]ccc12 [Compound 280, 4-(1H-indol-4-ylamino)-5-[5-(pyrrolidin-1-ylmethyl)-1-benzothien-2-yl]nicotinonitrile] | 0.004
N#Cc1cncc(-c2cc3cc(CN4CCOCC4)ccc3s2)c1Nc1cccc2[nH]ccc12 [Compound 281, 4-(1H-indol-4-ylamino)-5-[5-(morpholin-4-ylmethyl)-1-benzothien-2-yl]nicotinonitrile] | 0.01
N#Cc1cncc(-c2cc3cc(CN4CCC(CO)CC4)ccc3s2)c1Nc1cccc2[nH]ccc12 [Compound 284, 5-(5-{[4-(hydroxymethyl)piperidin-1-yl]methyl}-1-benzothien-2-yl)-4-(1H-indol-4-ylamino)nicotinonitrile] | 0.004
N#Cc1cncc(-c2cc3cc(CO)ccc3s2)c1Nc1cccc2[nH]ccc12 [Compound 285, 5-[5-(hydroxymethyl)-1-benzothien-2-yl]-4-(1H-indol-4-ylamino)nicotinonitrile] | 0.004
N#Cc1cncc(-c2cc3cc(CNCc4cccnc4)ccc3s2)c1Nc1cccc2[nH]ccc12 [Compound 289, 4-(1H-indol-4-ylamino)-5-(5-{[(pyridin-3-ylmethyl)amino]methyl}-1-benzothien-2-yl)nicotinonitrile] | 0.004
N#Cc1cncc(-c2cc3cc(CNCc4ccncc4)ccc3s2)c1Nc1cccc2[nH]ccc12 [Compound 290, 4-(1H-indol-4-ylamino)-5-(5-{[(pyridin-4-ylmethyl)amino]methyl}-1-benzothien-2-yl)nicotinonitrile] | 0.004
CN(C)c1ccc(-c2cncc(C#N)c2Nc2cccnc2)cc1 [Compound 291, 5-[4-(dimethylamino)phenyl]-4-(pyridin-3-ylamino)nicotinonitrile] | 4.86
CN(C)c1ccc(-c2cncc(C#N)c2Nc2ccc3[nH]ncc3c2)cc1 [Compound 292, 5-[4-(dimethylamino)phenyl]-4-(1H-indazol-5-ylamino)nicotinonitrile] | 13.2
CN(C)c1ccc(-c2cncc(C#N)c2Nc2ccc3cn[nH]c3c2)cc1 [Compound 293, 5-[4-(dimethylamino)phenyl]-4-(1H-indazol-6-ylamino)nicotinonitrile] | 36
CN(C)c1ccc(-c2cncc(C#N)c2Nc2cc(O)[nH]n2)cc1 [Compound 294, 5-[4-(dimethylamino)phenyl]-4-[(5-hydroxy-1H-pyrazol-3-yl)amino]nicotinonitrile] | 33.4
COc1cccc(-c2cncc(C#N)c2Nc2ccc3[nH]ncc3c2)c1 [Compound 295, 4-(1H-indazol-5-ylamino)-5-(3-methoxyphenyl)nicotinonitrile] | 2.95
COc1cccc(-c2cncc(C#N)c2Nc2ccc3cn[nH]c3c2)c1 [Compound 296, 4-(1H-indazol-6-ylamino)-5-(3-methoxyphenyl)nicotinonitrile] | 16.2
Cc1c(Nc2c(C#N)cncc2-c2cccc(Br)c2)ccc2[nH]ccc12 [Compound 298, 5-(3-bromophenyl)-4-[(4-methyl-1H-indol-5-yl)amino]nicotinonitrile] | 0.004
COc1ccc(-c2cncc(C#N)c2Nc2cccc3[nH]ccc23)cc1OCCN1CCOCC1 [Compound 299, 4-(1H-indol-4-ylamino)-5-[4-methoxy-3-(2-morpholin-4-ylethoxy)phenyl]nicotinonitrile] | 0.03
COc1ccc(-c2cncc(C#N)c2Nc2cccc3[nH]ccc23)cc1OCCN1CCN(C)CC1 [Compound 300, 4-(1H-indol-4-ylamino)-5-{4-methoxy-3-[2-(4-methylpiperazin-1-yl)ethoxy]phenyl}nicotinonitrile] | 0.02
COc1ccc(-c2cncc(C#N)c2Nc2cccc3[nH]ccc23)cc1OCCN(C)C [Compound 301, 5-{3-[2-(dimethylamino)ethoxy]-4-methoxyphenyl}-4-(1H-indol-4-ylamino)nicotinonitrile] | 0.05
COc1ccc(-c2cncc(C#N)c2Nc2cccc3[nH]ccc23)cc1OCCN1CCC(O)CC1 [Compound 302, 5-{3-[2-(4-hydroxypiperidin-1-yl)ethoxy]-4-methoxyphenyl}-4-(1H-indol-4-ylamino)nicotinonitrile] | 0.03
COc1ccc(-c2cncc(C#N)c2Nc2cccc3[nH]ccc23)cc1OCCCl [Compound 303, 5-[3-(2-chloroethoxy)-4-methoxyphenyl]-4-(1H-indol-4-ylamino)nicotinonitrile] | 0.04
Cc1c(Nc2c(C#N)cncc2-c2cccc(-c3cccs3)c2)ccc2[nH]ccc12 [Compound 304, 4-[(4-methyl-1H-indol-5-yl)amino]-5-[3-(2-thienyl)phenyl]nicotinonitrile] | 0.11
CCc1c(Nc2c(C#N)cncc2-c2ccc(OC)c(OC)c2)ccc2[nH]ccc12 [Compound 305, 5-(3,4-dimethoxyphenyl)-4-[(4-ethyl-1H-indol-5-yl)amino]nicotinonitrile] | 0.06

Stronger by IC50, values ahead:

IC50 [µM] | Compound
0.002 | CCCCNCc1ccc2sc(-c3cncc(C#N)c3Nc3cccc4[nH]ccc34)cc2c1 [Compound 273, 5-{5-[(butylamino)methyl]-1-benzothien-2-yl}-4-(1H-indol-4-ylamino)nicotinonitrile]
0.002 | N#Cc1cncc(-c2cc3cc(CNCCO)ccc3s2)c1Nc1cccc2[nH]ccc12 [Compound 274, 5-(5-{[(2-hydroxyethyl)amino]methyl}-1-benzothien-2-yl)-4-(1H-indol-4-ylamino)nicotinonitrile]
0.002 | N#Cc1cncc(-c2cc3cc(CNCCCO)ccc3s2)c1Nc1cccc2[nH]ccc12 [Compound 275, 5-(5-{[(3-hydroxypropyl)amino]methyl}-1-benzothien-2-yl)-4-(1H-indol-4-ylamino)nicotinonitrile]
0.002 | COCCCNCc1ccc2sc(-c3cncc(C#N)c3Nc3cccc4[nH]ccc34)cc2c1 [Compound 276, 4-(1H-indol-4-ylamino)-5-(5-{[(3-methoxypropyl)amino]methyl}-1-benzothien-2-yl)nicotinonitrile]
0.003 | N#Cc1cncc(-c2cc3cc(CNCCCCO)ccc3s2)c1Nc1cccc2[nH]ccc12 [Compound 277, 5-(5-{[(4-hydroxybutyl)amino]methyl}-1-benzothien-2-yl)-4-(1H-indol-4-ylamino)nicotinonitrile]
0.002 | N#Cc1cncc(-c2cc3cc(CNC4CC4)ccc3s2)c1Nc1cccc2[nH]ccc12 [Compound 278, 5-{5-[(cyclopropylamino)methyl]-1-benzothien-2-yl}-4-(1H-indol-4-ylamino)nicotinonitrile]
0.001 | N#Cc1cncc(-c2cc3cc(CNCC4CC4)ccc3s2)c1Nc1cccc2[nH]ccc12 [Compound 279, 5-(5-{[(cyclopropylmethyl)amino]methyl}-1-benzothien-2-yl)-4-(1H-indol-4-ylamino)nicotinonitrile]
0.003 | N#Cc1cncc(-c2cc3cc(CNCCN4CCOCC4)ccc3s2)c1Nc1cccc2[nH]ccc12 [Compound 282, 4-(1H-indol-4-ylamino)-5-(5-{[(2-morpholin-4-ylethyl)amino]methyl}-1-benzothien-2-yl)nicotinonitrile]
0.002 | N#Cc1cncc(-c2cc3cc(CN4CCCCC4)ccc3s2)c1Nc1cccc2[nH]ccc12 [Compound 283, 4-(1H-indol-4-ylamino)-5-[5-(piperidin-1-ylmethyl)-1-benzothien-2-yl]nicotinonitrile]
0.001 | N#Cc1cncc(-c2cc3cc(CNCc4ccccc4)ccc3s2)c1Nc1cccc2[nH]ccc12 [Compound 286, 5-{5-[(benzylamino)methyl]-1-benzothien-2-yl}-4-(1H-indol-4-ylamino)nicotinonitrile]
0.003 | N#Cc1cncc(-c2cc3cc(CNCCc4ccccc4)ccc3s2)c1Nc1cccc2[nH]ccc12 [Compound 287, 4-(1H-indol-4-ylamino)-5-(5-{[(2-phenylethyl)amino]methyl}-1-benzothien-2-yl)nicotinonitrile]
0.003 | N#Cc1cncc(-c2cc3cc(CNCc4ccccn4)ccc3s2)c1Nc1cccc2[nH]ccc12 [Compound 288, 4-(1H-indol-4-ylamino)-5-(5-{[(pyridin-2-ylmethyl)amino]methyl}-1-benzothien-2-yl)nicotinonitrile]
